Tests used:
[1] = tested on: Prg4−/− synoviocytes; experiment: Cytokine-induced Prg4−/− synoviocyte proliferation; type: cell-based, mice; conditions: p<0.001
Experimental: rhPRG4 binding to CD44 and competition with high molecular weight hyaluronic acid (HMW HA) was evaluated using a direct enzyme linked immunosorbent assay (ELISA) and surface plasmon resonance. Sialidase-A and O-glycosidase digestion of rhPRG4 was performed and CD44 binding was evaluated using ELISA. Rheumatoid arthritis fibroblast-like synoviocytes (RA-FLS) were stimulated with interleukin-1 beta (IL-1β) or tumor necrosis factor alpha (TNF-α) for 48 hours in the presence or absence of rhPRG4 or HMW HA at 20, 40 and 80 μg/mL and cell proliferation was measured. CD44 contribution was assessed by co-incubation with an anti-CD44 antibody (IM7). The anti-proliferative effect of rhPRG4 was investigated following treatment of Prg4−/− synoviocytes with IL-1β or TNF-α in the presence or absence of IM7.
Synovial tissue was harvested from Prg4−/− and Prg4+/+ male mice (8-10 weeks old; 5-8 animals per genotype) and digested with pronase enzyme (2 mg/mL; Sigma Aldrich) in sterile HBSS buffer for 30 min at 37° C. with shaking. This was followed by digestion with type I collagenase (1 mg/mL; Sigma Aldrich) for 4 hours at 37° C. with shaking. The enzymatic reaction was stopped using DMEM+10% FBS. Cells were grown in DMEM+10% FBS and Prg4−/− synoviocytes were used between 2nd and 4th passages while Prg4+/+ synoviocytes were used in their second passage.

[2] = biological target: T1, CD44 (Homo sapiens, UniProt P16070); experiment: Concentration-dependent binding to CD44, direct ELISA
T1 construct: purchased R & D systems
Experimental: High-binding microtiter plates (Corning, Sigma Aldrich, USA) were coated with rhPRG4 (Mr≅240 KDa), high molecular weight HA (HMW HA; Mr≈1,500 KDa) (R & D System, USA), medium molecular weight HA (MMW HA; Mr≈300 KDa) (R & D System) and vitronectin (Mr≅75 KDa) (Sigma Aldrich) at 400 μg/mL in PBS buffer (100 μL per well) overnight at 4° C. rhPRG4 is a full-length product produced by CHO-M cells (Lubris, Framingham, Mass., USA). Following washing with PBS+0.1% Tween 20, wells were blocked with 2% bovine serum albumin (BSA; 300 μL per well) for at least 2 hours at room temperature. CD44-IgG1Fc (R & D systems) or IgG1Fc (R & D systems), each at 1 μg/mL (100 μl per well), were added to the plate and incubated for 60 min at room temperature. Following washing with PBS+0.1% tween 20, anti-IgG1Fc-HRP (Sigma Aldrich) was added at 1:10,000 dilution (100 μL per well) and incubated for 60 min at room temp. Following washing with PBS+0.1% tween 20, the assay was developed using 1-step Turbo TMB ELISA reagent (ThermoScientific, USA) and absorbance was measured at 450 nm. The data represents an average of 4 independent assays, each with triplicate wells per group.
The concentration-dependent binding of rhPRG4, HMW HA and MMW HA to CD44 was performed by coating microtiter plates with 400, 200, 100, 20, 4, 2 and 0.1 μg/mL of the macromolecules. The assay was performed as described above. The absorbance values in the IgG1Fc wells were subtracted from the absorbance values in the CD44 IgG1Fc wells and the corrected CD44 IgG1Fc absorbance values were normalized to those of the 400 μg/mL rhPRG4 group and data was expressed as percentage binding to CD44. The concentration-dependent binding of rhPRG4, HMW HA and MMW HA to recombinant CD44 is depicted in FIG. 1B. […] The data represents an average of 4 independent assays, each with triplicate wells per group.

[3] = Serum cytokine levels after DMM surgery and intraarticular lubricin; type: in vivo, rat; conditions: single intraarticular dose 200 μg/kg seven days after DMM surgery; samples 3 weeks after dose; versus saline
Experimental: In order to determine if lubricin could modulate pro-inflammatory cytokine levels in vivo, a rat model was used. Nine rats were subject to surgery to destabilize the medial meniscus (DMM surgery). Seven days after surgery, each rat received a single intraarticular dose of lubricin of 200 μg/kg. Control rats received an injection of an equal volume of saline. Cytokine levels in serum samples taken from the […] were compared with […] who received surgery but no dose of lubricin post-surgery. Samples were drawn 3 weeks after the dose of lubricin was administered and analyzed using the Luminex Multiplex platform. The results are shown in FIG. 13 where the measured levels of EPO, IL-13, IL-10, IL-18, IL-1α, IL-2, MCSF, IL-1β, IL-4, IFN-γ, MIP-3α, GMCSF, IL-7, TNF-α, VEGF, MCP-1, IL-5, G-CSF, RANTES, IL-6, GRO, IL-17α, and IL-12p70 are shown. The levels of IL-18, MCSF, MCP-1, RANTES, and GRO were all reduced in rats receiving lubricin as compared to rats that were injected with saline alone.

[4] = tested on: normal synovial fluid cells; experiment: Cytokines secreted by normal synoviocytes (Luminex); type: cell-based, human; conditions: rhPRG4 90 μg/mL, 24 hours, lubricin vs. PBS
Experimental: Synovial fluid cells were obtained from normal and osteoarthritic (OA) patients and purified with CD90+ following an immune cell depletion. The cells were plated at 10,000 per well and suspended in media containing DMEM, heat-inactivated Hyclone FBS (10%), and Anti-Anti (1%). The assays contained the cell suspension (cells+ media) at 180 μL and the ligands at 20 μL for a total volume of 200 μL. Recombinant lubricin (rhPRG4) was then introduced to the cells at a concentration of 90 μg/mL and the negative control was PBS. The plate was then incubated at 37° C. at 5% CO2 for 24 hours, after which the supernatants were collected for cytokine analysis via the Luminex multiplex platform.

[5] = tested on: human whole blood; experiment: Lubricin on tissue factor mediated inflammatory cytokine generation in whole blood; type: cell-based
Experimental: The effect of lubricin on recombinant tissue factor (TF) mediated inflammatory cytokine generation was studied using Biochip Array technology. In these studies recombiplastin brand (IL Laboratories) tissue factor was used to trigger the generation of inflammatory cytokines in human whole blood. The effect of lubricin at 0.57 mg/mL was studied by supplementing this agent prior to the addition of tissue factor to the whole blood. Tissue factor alone served as a positive control. The blood samples were centrifuged and plasma retrieved. This plasma was then profiled for the inflammatory cytokine profile on the Randox Biochip arrays. TF was supplemented to whole blood in a 1:10 dilution.

T1 sequence (P16070 with tags, fused parts or gaps limits assumed): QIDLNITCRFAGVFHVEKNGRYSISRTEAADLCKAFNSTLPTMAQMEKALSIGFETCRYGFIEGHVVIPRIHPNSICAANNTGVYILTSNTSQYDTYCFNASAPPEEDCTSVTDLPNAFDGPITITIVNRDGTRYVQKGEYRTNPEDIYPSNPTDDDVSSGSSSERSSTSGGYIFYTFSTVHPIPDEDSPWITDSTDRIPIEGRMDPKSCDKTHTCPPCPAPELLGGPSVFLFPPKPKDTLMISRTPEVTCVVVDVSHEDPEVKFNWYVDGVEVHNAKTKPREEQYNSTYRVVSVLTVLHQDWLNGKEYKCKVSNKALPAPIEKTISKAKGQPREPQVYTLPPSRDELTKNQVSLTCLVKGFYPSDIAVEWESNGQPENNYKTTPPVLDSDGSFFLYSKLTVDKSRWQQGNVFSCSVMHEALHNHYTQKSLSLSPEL

For “rhPRG4: full-length recombinant human PRG4 (lubricin) glycoprotein produced by CHO-M cells (Lubris), Mr≅240 KDa”, the “IL-1β induced proliferation of Prg4−/− synoviocytes” value [1] was “significantly inhibited”, the “TNF-α induced proliferation of Prg4−/− synoviocytes” value [1] was “significantly inhibited” and the “affinity of concentration-dependent binding to CD44” value [2] was “comparable affinity to HMW HA”. For the same substance, the “percentage CD44 binding, difference between rhPRG4, HMW HA and MMW HA-coated wells” value ([2]; coating 0.1 μg/mL) was “no significant differences”, the “percentage recombinant CD44 binding compared to MMW HA coated wells” value ([2]; coating 200 μg/mL, p<0.001) was “significantly higher” and the “percentage recombinant CD44 binding compared to HMW HA or MMW HA-coated wells” value ([2]; coating 400, 100, 20, 4 and 2 μg/mL, p<0.001) was “significantly higher”. The “serum levels of IL-18, MCSF, MCP-1, RANTES and GRO” value [3] was “reduced”, the cytokine response [4] was “did not show any changes” and the “IL-6, IL-8, VEGF, TNF-α, IL-1α, IL-1β, MCP-1 and EGF” value ([5]; lubricin 0.57 mg/mL before tissue factor (1:10), versus TF alone) was “decrease”. For the same substance, the “TNF-α and VEGF levels” value ([5]; lubricin 0.57 mg/mL, tissue factor supplemented samples) was “pronounced decrease”.
